Consider one molecule from ChEMBL document CHEMBL5365473, “Novel Sulfonylurea-Based NLRP3 Inflammasome Inhibitor for Efficient Treatment of Nonalcoholic Steatohepatitis, Endotoxic Shock, and Colitis” (J Med Chem, 2023).

Activity calls are given as the source filed them. The calls are words filed in the database; no cut-off is given here.

The target of data set [1] is NLR family CARD domain-containing protein 4 (Mus musculus) (UniProt Q3UP24). As to the kind of experiment: Inhibition of NLRC4 inflammasome in mouse J774.A1 cells assessed as inhibition of IL-1 beta secretion at 30 nM primed with LPS for 4.5 hrs followed by incubation with compound for 24 hrs and later stimulated with flagellin for 24 hrs by immunoblot analysis. The settings on record: time 48.0 hrs. It is filed as cell-based. Background: A western blot detects proteins with antibodies after separation by electrophoresis.

For data set [2], the system named is Mus musculus. As to the kind of experiment: Antiinflammatory activity against DSS-induced ulcerative colitis C57BL/6 mouse assessed as reduction in crypt necrosis in colon at 10 mg/kg, ip administered for 9 days and measured on day 10 by H and E staining based analysis. The settings on record: time 10.0 day. It is filed as functional, organism-based.
Data set [3] in a line: Toxicity against male ICR mouse assessed as effect on heart weight at 200 to 500 mg/kg administered via gavage for 12 days. In kind it is organism-based. The settings on record: in vivo, po, 288 h, dose 200-500 mg/kg, time 12 day.
A short description of data set [4]: Toxicity against male ICR mouse assessed as effect on brain weight at 200 to 500 mg/kg administered via gavage for 12 days. In kind it is organism-based. Conditions: in vivo, po, 288 h, dose 200-500 mg/kg, time 12 day.
In data set [5] the test system is Mus musculus. As to the kind of experiment: Antiinflammatory activity against MCD diet-induced NASH C57BL/6 mouse model assessed as reduction in balloon dilatation in liver at 40 mg/kg, po administered via gavage for 5 weeks by Sirius red staining based analysis. In kind it is functional, organism-based.
A short description of data set [6]: Toxicity against male ICR mouse assessed as effect on plasma AST level at 200 to 500 mg/kg administered via gavage for 12 days. It is filed as organism-based. Conditions: in vivo, po, 288 h, dose 200-500 mg/kg, time 12 day.
Data set [7] is described as follows: Apparent volume of distribution in ICR mouse at 5 mg/kg, iv by LC-MS/MS analysis. The settings on record: in vivo, read-out: Vz. In kind it is ADME, organism-based.
Data set [8] is described as follows: Toxicity against female ICR mouse assessed as effect on liver weight at 200 to 500 mg/kg administered via gavage for 12 days. In kind it is organism-based. Conditions: in vivo, po, 288 h, dose 200-500 mg/kg, time 12 day.
A short description of data set [9]: Toxicity against female ICR mouse assessed as effect on plasma ALT level at 200 to 500 mg/kg administered via gavage for 12 days. In kind it is organism-based. Conditions: in vivo, po, 288 h, dose 200-500 mg/kg, time 12 day.
A short description of data set [10]: Toxicity against female ICR mouse assessed as effect on heart weight at 200 to 500 mg/kg administered via gavage for 12 days. The settings on record: in vivo, po, 288 h, dose 200-500 mg/kg, time 12 day. In kind it is organism-based.
For data set [11], the system named is Mus musculus. Description: Antiinflammatory activity against MCD diet-induced NASH C57BL/6 mouse model assessed as reduction in liver steatosis at 40 mg/kg, po administered via gavage for 5 weeks by Masson's trichrome staining based analysis. In kind it is functional, organism-based.
Data set [12] is described as follows: Toxicity against male ICR mouse assessed as effect on body weight at 200 to 500 mg/kg administered via gavage for 12 days. In kind it is organism-based. The settings on record: in vivo, po, 288 h, dose 200-500 mg/kg, time 12 day.
The target of data set [13] is T1, Interferon-inducible protein AIM2 (Mus musculus) (UniProt Q91VJ1).
T1 sequence (whole entry): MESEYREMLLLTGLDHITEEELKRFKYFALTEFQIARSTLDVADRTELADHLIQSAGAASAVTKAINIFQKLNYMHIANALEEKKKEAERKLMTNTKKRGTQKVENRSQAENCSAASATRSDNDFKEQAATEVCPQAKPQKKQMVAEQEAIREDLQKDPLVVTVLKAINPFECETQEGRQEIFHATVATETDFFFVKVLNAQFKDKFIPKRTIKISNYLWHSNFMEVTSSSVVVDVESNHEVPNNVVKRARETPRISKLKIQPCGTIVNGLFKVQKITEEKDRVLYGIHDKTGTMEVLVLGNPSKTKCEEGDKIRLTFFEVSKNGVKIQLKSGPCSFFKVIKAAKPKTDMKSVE
As to the kind of experiment: Inhibition of AIM2 inflammasome in mouse J774.A1 cells assessed as inhibition of caspase-1 activation at 30 nM primed with LPS for 4.5 hrs followed by incubation with compound for 24 hrs and later stimulated with poly (dA:dT) for 6 hrs by immunoblot analysis. It is filed as cell-based. Conditions: time 30.0 hrs.

Data set [14] in a line: Drug uptake in Sprague-Dawley rat brain at 50 mg/kg, po measured for 24 hrs by LC-MS/MS analysis. It is filed as ADME, organism-based. The settings on record: in vivo.
Data set [15] is described as follows: Effect on immune cell numbers in MCS diet-fed C57BL/6 mouse assessed as effect on F4/80 expression at 40 mg/kg, po administered via gavage for 5 weeks by immunofluorescence staining based analysis. It is filed as toxicity, organism-based. The settings on record: in vivo, 840 h.
Data set [16] relates to Mus musculus. As to the kind of experiment: Antiinflammatory activity against MCD diet-induced NASH C57BL/6 mouse model assessed as reduction in liver fibrosis at 40 mg/kg, po administered via gavage for 5 weeks by Sirius red staining based analysis. It is filed as functional, organism-based.
The nature of data set [17]: Effect on immune cell numbers in MCS diet-fed C57BL/6 mouse assessed as effect on CD45 expression at 40 mg/kg, po administered via gavage for 5 weeks by immunofluorescence staining based analysis. It is filed as toxicity, organism-based. The settings on record: in vivo, 840 h.
Data set [18] can be described thus: Drug uptake in Sprague-Dawley rat adipose tissue at 50 mg/kg, po measured for 24 hrs by LC-MS/MS analysis. In kind it is ADME, organism-based. The settings on record: in vivo.
The nature of data set [19]: Drug uptake in Sprague-Dawley rat muscle at 50 mg/kg, po measured for 24 hrs by LC-MS/MS analysis. It is filed as ADME, organism-based, Muscle tissue. Conditions: in vivo.
Data set [20] in a line: Toxicity against female ICR mouse assessed as effect on ratio of plasma AST to ALT level at 200 to 500 mg/kg administered via gavage for 12 days. The settings on record: in vivo, po, 288 h, dose 200-500 mg/kg, time 12 day. In kind it is organism-based.
For data set [21], the system named is Mus musculus. As to the kind of experiment: Antiinflammatory activity against MCD diet-induced NASH C57BL/6 mouse model assessed as reduction in liver steatosis at 40 mg/kg, po administered via gavage for 5 weeks by Sirius red staining based analysis. It is filed as functional, organism-based.
In data set [22] the target is T1, Interferon-inducible protein AIM2 (Mus musculus). As to the kind of experiment: Inhibition of AIM2 inflammasome in mouse J774.A1 cells assessed as inhibition of IL-1 beta secretion at 30 nM primed with LPS for 4.5 hrs followed by incubation with compound for 24 hrs and later stimulated with poly (dA:dT) for 6 hrs by immunoblot analysis. In kind it is cell-based. The settings on record: time 30.0 hrs.

NLR family CARD domain-containing protein 4 (Mus musculus), sequence (Q3UP24 whole entry, the tested form may be a part): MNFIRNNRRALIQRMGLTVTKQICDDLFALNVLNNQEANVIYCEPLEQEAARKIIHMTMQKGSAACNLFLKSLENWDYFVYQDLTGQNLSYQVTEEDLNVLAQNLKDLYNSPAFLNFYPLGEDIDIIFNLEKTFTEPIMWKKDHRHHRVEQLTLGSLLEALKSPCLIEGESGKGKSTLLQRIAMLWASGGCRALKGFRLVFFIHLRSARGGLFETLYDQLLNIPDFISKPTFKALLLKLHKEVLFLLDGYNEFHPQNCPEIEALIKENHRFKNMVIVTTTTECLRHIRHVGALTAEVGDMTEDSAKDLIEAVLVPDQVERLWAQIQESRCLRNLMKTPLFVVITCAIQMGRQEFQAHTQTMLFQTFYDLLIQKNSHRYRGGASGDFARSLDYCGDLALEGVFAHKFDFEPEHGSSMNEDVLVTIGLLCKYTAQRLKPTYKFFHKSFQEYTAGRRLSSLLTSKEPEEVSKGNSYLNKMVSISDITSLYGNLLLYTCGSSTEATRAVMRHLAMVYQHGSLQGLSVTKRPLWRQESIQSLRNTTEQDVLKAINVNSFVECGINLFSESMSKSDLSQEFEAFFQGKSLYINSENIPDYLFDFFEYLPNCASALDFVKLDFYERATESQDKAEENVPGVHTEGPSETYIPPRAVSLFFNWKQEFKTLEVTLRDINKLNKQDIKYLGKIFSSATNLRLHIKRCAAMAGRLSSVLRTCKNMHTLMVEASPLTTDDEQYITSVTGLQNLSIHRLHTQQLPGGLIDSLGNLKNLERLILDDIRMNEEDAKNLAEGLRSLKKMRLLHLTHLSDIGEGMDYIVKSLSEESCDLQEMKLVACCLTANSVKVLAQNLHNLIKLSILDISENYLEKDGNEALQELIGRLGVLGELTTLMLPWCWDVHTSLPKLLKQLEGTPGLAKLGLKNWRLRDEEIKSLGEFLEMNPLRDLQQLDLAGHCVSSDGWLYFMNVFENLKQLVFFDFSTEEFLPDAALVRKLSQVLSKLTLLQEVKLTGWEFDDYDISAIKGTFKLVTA

As for `CN(C)Cc1ccc(S(=O)(=O)NC(=O)Nc2c3c(cc4c2CCC4)CCC3)cc1`, the inhibition result in [1], in [13] and in [22] was “inactive” each time. Besides, the outcome in the data set on Mus musculus [2], in the data set with Mus musculus [5], with Mus musculus [11], in the data set on Mus musculus [16] and with Mus musculus [21] was Active. The Activity result in data set [3], in data set [4], in data set [6], in [8], in [9] and in data set [10] was “Non-Toxic” each time. In addition, the Activity entry in data set [12], in data set [15], in data set [17] and in data set [20] was “Non-Toxic” in each case. Besides, the Vd in data set [7] amounted to 0.226 L/kg. Also, the Drug uptake result in data set [14], in data set [18] and in data set [19] was “Active” in each case.
